The subject of assay [1] is PLC/PRF/5 KSR2 OE (PLC cells overexpressing KSR2). In words: Cell IC50 assay (CCK8 cell viability), PLC/PRF/5 KSR2 OE. It is filed as cell-based. Conditions: Homo sapiens, read-out: IC50 value of cell viability, PLC/PRF/5 KSR2 OE (PLC cells overexpressing KSR2). Here is the method: (§1) (1) Cell Preparation: Hepatoma cells (PLC/PRF/5, sourced from the Chinese Academy of Sciences; MHCC97H, sourced from this research institute) in good growth condition are prepared. The cells are trypsinized, diluted, and seeded into 96-well cell culture plates. 1,000-3,000 cells are added per well. The plates are then placed in a cell culture incubator at 37° C. with 5% CO2. Drugs are added after the cells have adhered for 24 h.
(§2) (2) Drug Addition: The drugs are subjected to gradient dilution, typically setting 9 concentrations. Control groups containing no drug medium and medium containing only the drug solvent are also set up. The diluted drugs are added to the cell culture plates seeded the previous day. The plates are incubated for 72 h.
(§3) (3) CCK8 Assay for Cell Viability: CCK8 is mixed with culture medium at a 1:10 ratio. 100 μL of this mixture is added to each well of the cell culture plate. After incubating for 2-4 h, the OD values are measured using a microplate reader.
(§4) (4) Data Analysis: Based on the corresponding OD values, the data are compiled, IC50 curves are plotted, and the IC50 values are obtained.
(§5) (5) IC50 Verification: The theoretical IC50 value is identified from the IC50 curve. Drug concentrations at ½ times, 1 time, and 2 times this theoretical value are used for verification.

The test system of assay [2] is MHCC97H KSR2 OE (97H cells overexpressing KSR2). In words: Cell IC50 assay (CCK8 cell viability), MHCC97H KSR2 OE. It is filed as cell-based. Particulars: Homo sapiens. Here is the method:
as §1, §2, §3, §4, §5

[3] abbreviates: read-out: IC50 value of cell viability, MHCC97H KSR2 OE (97H cells overexpressing KSR2).
[4] abbreviates: PLC-PRF-5, hepatoma cells, 72 h incubation, CCK8.
The mark [5] stands for this setting: hepatoma cells, 72 h incubation, CCK8, read-out: IC50 value of cell viability, MHCC97H KSR2 OE (97H cells overexpressing KSR2).

Read-outs that look alike come from different tables or passages of the source. Bounds are passed on as bounds.

As to `Cn1nc(C(=O)NCCCN2CCN(C3CCC(F)(F)CC3)CC2)c2c1-c1ccccc1SC2` [Compound 1], the IC50 in assay [1] (PLC-PRF-5, 72 h) came to 45 µM; in assay [2] (setting [3]), 41 µM.
For `Cn1nc(C(=O)NCCCN2CCN(C3CCOCC3)CC2)c2c1-c1ccccc1SC2` [Compound 2], in that order: 84 µM and greater than 100 µM.
As to `Cn1nc(C(=O)NCCCN2CCN(C3CCCC3)CC2)c2c1-c1ccccc1SC2` [Compound 3], the IC50 turned out to be 32 µM in assay [1] (setting [4]) and 56 µM in assay [2] (setting [5]).
For `Cn1nc(C(=O)NCCCN2CCN(C3CC4(CCC4)C3)CC2)c2c1-c1ccccc1SC2` [Compound 4], in that order: 22 µM and 15 µM.
For `Cn1nc(C(=O)NCCCN2CCN(CC3CC3)CC2)c2c1-c1ccccc1SC2` [Compound 5], the IC50 in assay [1] (PLC-PRF-5, 72 h) was 25 µM; in assay [2] (setting [3]), 44 µM.
Take `Cn1nc(C(=O)NCCCN2CCN(C3CCC3)CC2)c2c1-c1ccccc1SC2` [Compound 6]: the IC50 in assay [1] (PLC-PRF-5, 72 h) was 42 µM; in assay [2] (setting [3]), 70 µM.
In the case of `Cn1nc(C(=O)NCCCN2CCN(C3CCCCC3)CC2)c2c1-c1ccccc1S(=O)(=O)C2` [Compound 7], the figures for the IC50 in assay [1] (setting [4]) and in assay [2] (setting [5]) were 85 µM and 88 µM, respectively.
For the compound `Cn1nc(C(=O)NCCCN2CCN(C3CCCCC3)CC2)c2c1-c1ccccc1SC2` [Compound 8], the IC50 in assay [1] (PLC-PRF-5, 72 h) worked out at 61 µM; in assay [2] (setting [3]), 62 µM.
With `Cn1nc(C(=O)NCCCN2CCN(Cc3ccccc3)CC2)c2c1-c1ccccc1SC2` [Compound 10], the IC50 in assay [1] (PLC-PRF-5, 72 h) is 16 µM; in assay [2] (setting [3]), 38 µM.
For `Cn1nc(C(=O)NCCN2CCN(C3CCCCC3)CC2)c2c1-c1ccccc1SC2` [Compound 11], in that order: 35 µM and 62 µM.
As for `CN(CCCN1CCN(C2CCCCC2)CC1)C(=O)c1nn(C)c2c1CSc1ccccc1-2` [Compound 12], the IC50 in assay [1] (setting [4]) is 56 µM; in assay [2] (setting [5]), 86 µM.
For the compound `Cn1nc(C(=O)NCCCN2CCC(N3CCCCC3)CC2)c2c1-c1ccccc1SC2` [Compound 13], the IC50 in assay [1] (setting [4]) and in assay [2] (setting [5]) was 2 µM in each case.
Turning to `CCn1nc(C(=O)NCCCN2CCN(C3CCCCC3)CC2)c2c1-c1ccccc1SC2` [Compound 14], the IC50 amounted to 39 µM in assay [1] (setting [4]) and 14 µM in assay [2] (setting [5]).
As for `O=C(NCCCN1CCN(C2CCCCC2)CC1)c1nn(CC2CC2)c2c1CSc1ccccc1-2` [Compound 15], the IC50 in assay [1] (setting [4]) amounted to 10 µM; in assay [2] (setting [5]), 39 µM.
For `Cn1nc(C(=O)NCCCN2CCN(C3CCCCC3)CC2)c2c1-c1ccccc1OC2` [Compound 16], in that order: 26 µM and 46 µM.
For `Cn1nc(C(=O)NCCCN2CCN(C3CCCCC3)CC2)c2c1-c1ccccc1CC2` [Compound 17], in that order: 21 µM and 57 µM.
For `Cn1nc(C(=O)NCC(O)CN2CCN(c3ccccc3)CC2)c2c1-c1ccccc1SC2` (stereo not drawn) [Compound 18], the IC50 turned out to be 42 µM in assay [1] (setting [4]) and 40 µM in assay [2] (setting [5]).
In the same order, the values of `Cn1nc(C(=O)NCCCN2CCN(c3ccccn3)CC2)c2c1-c1ccccc1SC2` [Compound 19] are 40 µM and 40 µM.
In the same order, the values of `Cn1nc(C(=O)NCCCN2CCN(c3cccnc3)CC2)c2c1-c1ccccc1SC2` [Compound 20] are 29 µM and 32 µM.
In the case of `Cn1nc(C(=O)NCCCN2CCN(c3ccncc3)CC2)c2c1-c1ccccc1SC2` [Compound 21], the IC50 was 7 µM in assay [1] (setting [4]) and 6 µM in assay [2] (setting [5]).
In the same order, the values of `Cn1nc(C(=O)NCCCN2CCN(c3ccccc3Cl)CC2)c2c1-c1ccccc1SC2` [Compound 22] are 15 µM and 30 µM.
For `Cn1nc(C(=O)NCC(F)(F)CN2CCN(c3ccccc3)CC2)c2c1-c1ccccc1SC2` [Compound 23], in that order: 8 µM and 8 µM.
For `Cn1nc(C(=O)NCCCN2CCN(c3cccc(Cl)c3)CC2)c2c1-c1ccccc1SC2` [Compound 24], in that order: 18 µM and 39 µM.
`Cn1nc(C(=O)NCCCN2CCN(c3ccc(Cl)cc3)CC2)c2c1-c1ccccc1SC2` [Compound 25]: the IC50 is 20 µM in assay [1] (setting [4]) and 37 µM in assay [2] (setting [5]).
Take `Cn1nc(C(=O)NCCCN2CCN(c3ccc(C(F)(F)F)cc3)CC2)c2c1-c1ccccc1SC2` [Compound 26]: the figures for the IC50 in assay [1] (setting [4]) and in assay [2] (setting [5]) were 14 µM and greater than 100 µM, respectively.
For `COc1ccc(N2CCN(CCCNC(=O)c3nn(C)c4c3CSc3ccccc3-4)CC2)cc1` [Compound 27], in that order: 31 µM and 13 µM.
In the same order, the values of `Cn1nc(C(=O)NCCCN2CCN(c3ncccn3)CC2)c2c1-c1ccccc1SC2` [Compound 28] are 11 µM and 31 µM.
For `Cn1nc(C(=O)NCCCN2CCN(c3ccc(C#N)cc3)CC2)c2c1-c1ccccc1SC2` [Compound 29], in that order: 41 µM and 2 µM.
Turning to `CN1CCN(C2CCN(CCCNC(=O)c3nn(C)c4c3CSc3ccccc3-4)CC2)CC1` [Compound 30], the IC50 was determined as 9 µM in assay [1] (setting [4]) and 6 µM in assay [2] (setting [5]).
In the same order, the values of `Cn1nc(C(=O)NCCCN2CCC(c3ccccc3)CC2)c2c1-c1ccccc1SC2` [Compound 31] are 21 µM and 19 µM.
For the compound `Cn1nc(C(=O)NCCCN2CCC(O)(c3ccccc3)CC2)c2c1-c1ccccc1SC2` [Compound 32], the figures for the IC50 in assay [1] (setting [4]) and in assay [2] (setting [5]) were 17 µM and 16 µM, respectively.
In the same order, the values of `CN1CCN(C2CCN(CC(F)(F)CNC(=O)c3nn(C)c4c3CSc3ccccc3-4)CC2)CC1` [Compound 33] are 19 µM and 18 µM.
For `Cn1nc(C(=O)NCC(F)(F)CN2CCC(N3CCCCC3)CC2)c2c1-c1ccccc1SC2` [Compound 34], in that order: 12 µM and 14 µM.
For the compound `Cn1nc(C(=O)NCC(F)(F)CN2CCC(N3CCOCC3)CC2)c2c1-c1ccccc1SC2` [Compound 35], the IC50 in assay [1] (setting [4]) was 28 µM; in assay [2] (setting [5]) it was 22 µM.
For `Cn1nc(C(=O)NCCCN2CCC(N3CCCCC3)C(F)(F)C2)c2c1-c1ccccc1SC2` (stereo not drawn) [Compound 36], in that order: 62 µM and 71 µM.
For `Cn1nc(C(=O)NCC(F)(F)CN2CCC(N3CCC(F)(F)CC3)CC2)c2c1-c1ccccc1SC2` [Compound 37], in that order: 19 µM and 28 µM.
In the same order, the values of `Cn1nc(C(=O)NCCCN2CCC(N3CCCC3)CC2)c2c1-c1ccccc1SC2` [Compound 38] are 3 µM and 4 µM.
With `CC(CNC(=O)c1nn(C)c2c1CSc1ccccc1-2)CN1CCN(c2ccccc2)CC1` (stereo not drawn) [Compound 40], the values for the IC50 in assay [1] (setting [4]) and in assay [2] (setting [5]) were 21 µM and greater than 100 µM, respectively.
For `Cn1nc(C(=O)NCCCN2CCC(N3CCNCC3)CC2)c2c1-c1ccccc1SC2` [Compound 41], in that order: 8 µM and 7 µM.
For `Cn1nc(C(=O)NCCCN2CCC(N3CCOCC3)CC2)c2c1-c1ccccc1SC2` [Compound 42], in that order: 43 µM and 39 µM.
In the same order, the values of `Cn1nc(C(=O)NCCCN2CCC(N3CCC(F)(F)C3)CC2)c2c1-c1ccccc1SC2` [Compound 43] are 41 µM and 43 µM.
As for `CCN1CCN(C2CCN(CCCNC(=O)c3nn(C)c4c3CSc3ccccc3-4)CC2)CC1` [Compound 44], the IC50 in assay [1] (setting [4]) worked out at 2 µM; in assay [2] (setting [5]), 0.2 µM.
For `CN(C)C1CCN(CCCNC(=O)c2nn(C)c3c2CSc2ccccc2-3)CC1` [Compound 45], in that order: 5 µM and 6 µM.
For the compound `Cn1nc(C(=O)NCCCN2CCC(N3CCC(O)C3)CC2)c2c1-c1ccccc1SC2` (stereo not drawn) [Compound 46], the IC50 was 2 µM in assay [1] (setting [4]) and 6 µM in assay [2] (setting [5]).
For `Cn1nc(C(=O)NCCCN2CCC(N3CCC3)CC2)c2c1-c1ccccc1SC2` [Compound 47], in that order: 2 µM and 4 µM.
`Cn1nc(C(=O)N2CC(CN3CCC(N4CCCC4)CC3)C2)c2c1-c1ccccc1SC2` [Compound 49]: the IC50 in assay [1] (setting [4]) and in assay [2] (setting [5]) was 7 µM in each case.
Consider `CN1CCN(C2CCN(CCCNC(=O)c3nn(C)c4c3COc3ccccc3-4)CC2)CC1` [Compound 50], for which the IC50 in assay [1] (setting [4]) was 7 µM; in assay [2] (setting [5]), 6 µM.
For `Cn1nc(C(=O)NCC2CC(N3CCC(N4CCCC4)CC3)C2)c2c1-c1ccccc1SC2` (stereo not drawn) [Compound 51], in that order: 1 µM and 1 µM.
In the same order, the values of `CN(C)C1CCN(CCCNC(=O)c2nn(C)c3c2CSc2ccccc2-3)C1` (stereo not drawn) [Compound 52] are 59 µM and 50 µM.
In the same order, the values of `CN(C)CC1CCN(CCCNC(=O)c2nn(C)c3c2CSc2ccccc2-3)C1` (stereo not drawn) [Compound 53] are 92 µM and 63 µM.
As for `CN(C)C1CN(CCCNC(=O)c2nn(C)c3c2CSc2ccccc2-3)C1` [Compound 54], the results for the IC50 in assay [1] (setting [4]) and in assay [2] (setting [5]) were 6 µM and 5 µM, respectively.

The record behind these values is US20260115187A1, “TRICYCLIC SKELETON COMPOUND AND USE THEREOF IN PREPARATION OF ANTITUMOR DRUG” (ZHONGSHAN HOSPITAL, FUDAN UNIVERSITY, priority 2024, published 2026).
